# Experimental data from patent publication US8859573B2, “Pyrimidinone and pyridinone compounds for use in the treatment of diseases or conditions mediated by Lp-PLA2” (Glaxo Group Limited, priority 2010, dated 2014).
# Experiments:
# [1] = test system: proinflammatory (M1) and anti-inflammatory (M2) markers; assay: Ex vivo analysis of M1 and M2 markers in macrophages of EAE animals (realtime PCR); design: species or system rats; details: EAE by MBP immunization, splenic macrophages day 13 and CNS infiltrating macrophages
# Experimental: A further study was carried out to study the impact of Lp-PLA2 inhibitors on modulating M1/M2 imbalance. In this study, rats were induced to develop experimental autoimmune encephalomyelitis (EAE) by immunization with myelin basic protein (MBP) antigen and treated with a known Lp-PLA2 inhibitor: 5-((9-Methoxy-4-oxo-6,7-dihydro-4H-pyrimido[6,1-a]isoquinolin-2-yl)oxy)-2-(3-(trifluoromethyl)phenoxy)benzonitrile (See PCT application no. PCT/CN2011/001597) For preventive treatment, compound administration started at day 0 whereas it started at 7 day in therapeutic treatment. Rats were subsequently monitored for symptoms of EAE. Rats were immunized with MBP to develop EAE and symptoms were monitored daily. Plasma Lp-PLA2 activity and LysoPC concentration were determined at different time points through the course of EAE.
# Ex vivo analysis of proinflammatory (M1) and anti-inflammatory (M2) markers in control and compound treated EAE […]. Splenic macrophages were harvested at day 13 post MBP-immunization and assayed for expression of a variety of markers by realtime PCR. CNS infiltrating cells were harvested and macrophages were analyzed for expression of M1 and M2 markers by realtime PCR.
# Lp-PLA2 from plasma = biological target: T1, Lp-PLA2 from plasma (Homo sapiens, UniProt Q13093); assay: Lp-PLA2 human plasma assay (Thio-PAF assay); type: biochemical; details: pooled human plasma; read-out: pIC50 values in the thio-PAF assay (converted)
# T1 construct: from tissue; host or cells: pooled human plasma
# T1 sequence (Q13093 22-441): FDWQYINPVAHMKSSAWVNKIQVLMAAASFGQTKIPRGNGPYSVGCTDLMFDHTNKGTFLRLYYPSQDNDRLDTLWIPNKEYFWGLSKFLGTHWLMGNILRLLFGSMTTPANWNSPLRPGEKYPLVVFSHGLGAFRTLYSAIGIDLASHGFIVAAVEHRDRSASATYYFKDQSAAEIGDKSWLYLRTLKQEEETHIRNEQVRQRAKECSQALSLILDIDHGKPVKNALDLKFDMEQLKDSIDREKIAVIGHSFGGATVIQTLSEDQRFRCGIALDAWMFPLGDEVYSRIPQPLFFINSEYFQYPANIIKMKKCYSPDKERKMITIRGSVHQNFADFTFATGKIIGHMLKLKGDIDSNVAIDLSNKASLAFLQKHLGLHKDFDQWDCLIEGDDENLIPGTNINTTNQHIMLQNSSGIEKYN
# How it was run: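 Pooled human plasma preincubated 30 min with compound, then thio-PAF substrate with NEM and CPM added in pH 7.4 HEPES/NaCl/CHAPS buffer; reaction 2 min at room temperature, quenched with 5% TFA, fluorescence read at ex 380/em 485 after 40 min; pIC50 from curve fitting.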
# [2] = biological target: T2, recombinant human Lp-PLA2 (Homo sapiens, UniProt Q13093); assay: Recombinant human Lp-PLA2 assay (rhLp-PLA2, PED6 assay); type: biochemical; details: upper limit for pIC50 in this assay is 9.3
# T2 sequence (Q13093 22-441): T1 sequence (Q13093 22-441)
# Text: (1) Recombinant Human Lp-PLA2 Assay (rhLp-PLA2) (Also Referred to as “PED6” Assay)
# N-((6-(2,4-dinitrophenyl)amino)-hexanoyl)-2-(4,4-difluoro-5,7-dimethyl-4-bora-3a,4a-diaza-s-indacene-3-pentanoyl)-1-hexadecanoyl-sn-glycero-3-phosphoethanolamine, triethylammonium salt (PED6) is a commercially available fluorescently-labelled phospholipid, which is commercially available from Molecular Probes. There is a quenching para-nitro phenyl (PNP) group in the sn3 position and a Bodipy fluorescein (FL) group in the sn2 position. Upon cleavage with Lp-PLA2, the Bodipy F1 group is liberated and then may result in an increase in fluorescence. Inhibitors of Lp-PLA2 therefore prevent this cleavage and no fluorescent increase is observed.
# The PED6 assay was run as an […] 10 μL assay. Compounds source plate was prepared by making 1:3 (by volume) serial dilution of the compounds into pure DMSO on 384-well microplate. Then, 0.01 μL of compounds on compound source plate were transferred into 384 well Greiner 784076 (black) plates by ECHO liquid dispenser. 5 μL of recombinant human Lp-PLA2 enzyme (2 nM rhLp-PLA2 in assay buffer of 50 mM HEPES, pH7.4, 150 mM NaCl, 1 mM CHAPS) was added to each well of the plate with compounds. Plates were centrifuged for 10 sec at 500 rpm. After 30 minutes preincubation, […] substrate (4 μM PED6 [from 5 mM DMSO stock] in assay buffer of 50 mM HEPES, pH7.4, 150 mM NaCl, 1 mM CHAPS) was added to 384 well Greiner 784076 (black) plates. Plates were centrifuged for 10 sec at 500 rpm. Plate was covered to protect from light and incubated for 20 min at room temperature. Plates were read for fluorescence intensity at ex: 480/em: 540 using ViewLux microplate imager. PIC50 data, curve and QC analysis was conducted by using XL fit module in Excel.
Compound,M1 markers [1],M2 markers [1],IC50 (Lp-PLA2 from plasma) [µM],IC50 [2] [µM]
"COc1ccc2c(c1)CCn1c-2cc(Oc2ccc(Oc3cccc(C(F)(F)F)c3)c(C#N)c2)nc1=O [5-((9-Methoxy-4-oxo-6,7-dihydro-4H-pyrimido[6,1-a]isoquinolin-2-yl)oxy)-2-(3-(trifluoromethyl)phenoxy)benzonitrile]",decrease,increase,–,–
"Cc1cn(Cc2cnn(C)c2)c(=O)nc1OCCc1ccc(Oc2ccc(Cl)c(C(F)(F)F)c2)cc1 [Example 66, 4-(4-(4-chloro-3-(trifluoromethyl)phenoxy)phenethoxy)-5-methyl-1-((1-methyl-1H-pyrazol-4-yl)methyl)pyrimidin-2 (1H)-one]",–,–,≤ 0.1,≤ 0.001
"Cc1cn(Cc2cnn(C)c2)c(=O)nc1OCCc1ccc(Oc2ccc(F)c(F)c2)nc1 [Example 67, 4-(2-(6-(3,4-difluorophenoxy)pyridin-3-yl)ethoxy)-5-methyl-1-((1-methyl-1H-pyrazol-4-yl)methyl)pyrimidin-2(1H)-one]",–,–,≤ 1,> 0.01
"Cc1cn(Cc2cnn(C)c2)c(=O)nc1OCc1ccc(Oc2cccc(C(F)(F)F)c2)c(C#N)c1 [Example 69, 5-(((5-methyl-1-((1-methyl-1H-pyrazol-4-yl)methyl)-2-oxo-1,2-dihydropyrimidin-4-yl)oxy)methyl)-2-(3-(trifluoromethyl)phenoxy)benzonitrile]",–,–,≤ 0.1,≤ 0.001
"COc1ncc(Cn2cc(C)c(OCCc3ccc(Oc4ccc(F)c(F)c4)nc3)nc2=O)cn1 [Example 70, 4-(2-(6-(3,4-difluorophenoxy)pyridin-3-yl)ethoxy)-1-((2-methoxypyrimidin-5-yl)methyl)-5-methylpyrimidin-2(1H)-one]",–,–,≤ 1,> 0.01
"Cc1cn(Cc2cnn(C)c2)c(=O)nc1OCc1ccc(Oc2ccc(F)c(F)c2)c(C#N)c1 [Example 71, 2-(3,4-difluorophenoxy)-5-(((5-methyl-1-((1-methyl-1H-pyrazol-4-yl)methyl)-2-oxo-1,2-dihydropyrimidin-4-yl)oxy)methyl)benzonitrile]",–,–,≤ 0.1,≤ 0.001
"Cc1cn(Cc2cnn(C)c2)c(=O)nc1OCc1ccc(Oc2ccc(F)c(F)c2)c(F)c1 [Example 72, 4-((4-(3,4-difluorophenoxy)-3-fluorobenzyl)oxy)-5-methyl-1-((1-methyl-1H-pyrazol-4-yl)methyl)pyrimidin-2(1H)-one]",–,–,≤ 0.1,≤ 0.001
